# Source: the supplement of paper PMC11451515
# Key:
# Test in all cases: AUC of viability dose-response curve (% viability x log10 dose units); higher = less sensitive
# Settings in all cases: 48 h
# [1] = test system: P12-Ichikawa
# Method in brief: (§1)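 Leukemia cells adapted to each medium (500 or 1000 cells/well, 1536-well plates) were exposed to library compounds in DMSO for 48 h at 37°C at 11 threefold doses, 47 μM to 0.79 nM. Luminescence by CellTiter-Glo One was normalised per plate to DMSO and cell-free wells, then fitted with a four-parameter log-logistic curve on log10 dose. Curves above full viability were scaled and quality-control failures removed before area under the curve was integrated by trapezoidal rule.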
# [2] = test system: NOMO1
# Method in brief: as §1
# [3] = test system: SEM cells
# Method in brief: as §1
# [4] = RPMI 5 mM glucose + 10% dialyzed FBS
Compound,AUC of viability dose-response curve ([1]; HPLM + 10% dialyzed FBS),AUC of viability dose-response curve ([1]; RPMI 5 mM glucose + 10% FBS),"AUC of viability dose-response curve [1, 4]",AUC of viability dose-response curve ([2]; HPLM + 10% dialyzed FBS),AUC of viability dose-response curve ([2]; RPMI 5 mM glucose + 10% FBS),"AUC of viability dose-response curve [2, 4]",AUC of viability dose-response curve ([3]; HPLM + 10% dialyzed FBS),AUC of viability dose-response curve ([3]; RPMI 5 mM glucose + 10% FBS),"AUC of viability dose-response curve [3, 4]"
O=C1CCc2ccc(OCCCCN3CCN(c4cccc(Cl)c4Cl)CC3)cc2N1,473,471,449,449,433,438,,,
COC1=CC2=C(C=C1OC)[C@H]3[C@@H](CO2)OC4=C(C=CC5=C4\C=C/C(C)(C)O5)C3=O,399,327,341,402,404,406,409,357,326
CCCCCCCCc1ccc(CCC(N)(CO)CO)cc1,432,407,429,353,433,401,441,452,454
COc1cc2ncnc(Nc3cccc(Br)c3)c2cc1OC,451,462,464,475,447,460,447,460,448
CCCCCCCCCCCCCCCCCCOP(=O)([O-])OC1CC[N+](C)(C)CC1,470,462,465,469,470,467,455,468,442
COc1ccc2c(c1OC)CN1CCc3cc4c(cc3C1C2)OCO4 (stereo not drawn),356,316,311,322,330,331,288,263,271
O=C(CCc1ccc(O)cc1)c1c(O)cc(O)cc1O[C@@H]1O[C@H](CO)[C@@H](O)[C@H](O)[C@H]1O,428,405,408,,,,454,426,412
CCOC1=CC(=CC=C1C/2=N/[C@@](C)(C3=CC=C(Cl)C=C3)[C@](C)(N2C(=O)N4CCN(CC4)CC(=O)N5CCOCC5)C6=CC=C(Cl)C=C6)C(C)(C)C,465,461,443,,,,436,432,439
CN[C@@H]1C[C@H]2O[C@@](C)([C@@H]1OC)n1c3ccccc3c3c4c(c5c6ccccc6n2c5c31)C(=O)N[C@H]4O,280,249,271,279,264,289,220,226,232
Cc1cn(CCN2CCN(c3ccccc3-c3cc(C#N)cc(C(=O)NCCCN4CCCC4)c3)CC2)c2ccccc12,402,409,409,406,424,421,407,401,424
CC(C)NCC(O)COc1ccc(CCOCC2CC2)cc1 (stereo not drawn),474,469,461,427,453,448,470,458,468
N#CC(=C(/N)Sc1ccccc1N)/C(C#N)=C(\N)Sc1ccccc1N,474,469,472,436,473,444,452,444,410
CN[S+](=O)([O-])CCc1ccc2[nH]cc(C3CCN(C)CC3)c2c1,460,460,466,454,435,450,428,452,432
CN(C)c1ccc(Nc2nc(N)n(C(=O)c3c(F)cccc3F)n2)cc1,,,,452,465,459,396,361,370
COc1cc(OC)c(NC(=O)Nc2cc(C)on2)cc1Cl,463,465,463,464,442,417,467,397,453
NC(=O)c1cccc(N)c1,452,451,454,471,454,465,436,384,442
OC1=CC=C(C=C1)\C2=C\C(=O)C3=C(O2)C=C(O)C=C3O,467,456,453,451,457,448,462,430,443
Cc1ccc(-c2ncn(-c3ccc(Nc4nccc(-c5cccc(N6CCOCC6)c5)n4)cc3)n2)cn1,259,244,235,,,,229,226,217
CCN1C[C@]2(OC(=O)c3ccccc3NC(C)=O)CC[C@H](OC)[C@@]34[C@@H]2C[C@@H]([C@@H]13)[C@@]1(O)C[C@H](OC)[C@H]2C[C@@H]4[C@]1(O)[C@H]2OC,473,475,469,477,465,477,461,439,430
O=C1N\2CCC3=C([NH]C4=C3C=CC=C4)C2=N/C5=CC=CC=C15,465,457,454,465,461,466,461,456,451
C#C[C@]1(O)CC[C@H]2[C@@H]3CCc4cc(OC)ccc4[C@H]3CC[C@@]21C,433,468,471,453,457,457,444,470,471
CC(=O)[C@H]1CC[C@H]2[C@@H]3CCC4=CC(=O)CC[C@]4(C)[C@H]3CC[C@]12C,465,455,465,454,447,433,432,470,456
